Earlier results, collected in patent publication US20260125371A1, “METHOD FOR INHIBITING CLOSTRIDIOIDES DIFFICILE SPORE GERMINATION” (UNIVERSITY OF NOTRE DAME DU LAC, priority 2022, published 2026).
In brackets after ≈: the same amount, converted by molar mass. Like-named read-outs stand apart in the source and are kept apart here.

Assays:
Conditions in all cases: cited from earlier work
C. difficile strains = system: C. difficile strains
[1] = system: S. haemolyticus ATCC 29970
E. aerogenes ATCC35029 = system: E. aerogenes ATCC35029
P. aeruginosa ATCC27853 = system: P. aeruginosa ATCC27853
A. baumanii ATCC17961 = system: A. baumanii ATCC17961

In the case of Oc1ccc(-c2nc(-c3ccc(OC4CCCC4)cc3)no2)cc1 [Compound 2], the MIC (C. difficile strains; strain NR-32891) is listed as 4 µg/mL (≈ 12.4 µM), the MIC (C. difficile strains; strain NR-32892) is listed as 4 µg/mL (≈ 12.4 µM) and the MIC (C. difficile strains; strain NR-32895) is listed as 2 µg/mL (≈ 6.2 µM). The MIC (C. difficile strains; strain NR-32896) was 2 µg/mL (≈ 6.2 µM), the MIC (C. difficile strains; strain NR-32897) was 2 µg/mL (≈ 6.2 µM) and the MIC (C. difficile strains; strain NR-32900) was 4 µg/mL (≈ 12.4 µM). For the same compound, the MIC (C. difficile strains; strain NR-32903) was 2 µg/mL (≈ 6.2 µM), the MIC (C. difficile strains; strain NR-32904) was 2 µg/mL (≈ 6.2 µM) and the MIC (C. difficile strains; strain NR-49277) was 2 µg/mL (≈ 6.2 µM). For the same compound, the MIC (C. difficile strains; strain NR-49278) was 2 µg/mL (≈ 6.2 µM), the MIC (C. difficile strains; strain NR-49279) was 2 µg/mL (≈ 6.2 µM) and the MIC (C. difficile strains; strain NR-49280) was 4 µg/mL (≈ 12.4 µM). For the same compound, the MIC (C. difficile strains; strain NR-49281) was 4 µg/mL (≈ 12.4 µM), the MIC (C. difficile strains; strain NR-49282) was 4 µg/mL (≈ 12.4 µM) and the MIC (C. difficile strains; strain NR-49283) was 4 µg/mL (≈ 12.4 µM). The MIC (C. difficile strains; strain NR-49284) was 4 µg/mL (≈ 12.4 µM), the MIC (C. difficile strains; strain NR-49285) was 2 µg/mL (≈ 6.2 µM) and the MIC (C. difficile strains; strain NR-49286) was 2 µg/mL (≈ 6.2 µM). For the same compound, the MIC (C. difficile strains; strain NR-49287) was 2 µg/mL (≈ 6.2 µM), the MIC (C. difficile strains; strain NR-49288) was 2 µg/mL (≈ 6.2 µM) and the MIC (C. difficile strains; strain NR-49289) was 2 µg/mL (≈ 6.2 µM). For the same compound, the MIC (C. difficile strains; strain NR-49290) was 4 µg/mL (≈ 12.4 µM), the MIC (C. difficile strains; strain NR-49291) was 2 µg/mL (≈ 6.2 µM) and the MIC (C. difficile strains; strain NR-49293) was 2 µg/mL (≈ 6.2 µM). For the same compound, the MIC (C. difficile strains; strain NR-49295) was 4 µg/mL (≈ 12.4 µM), the MIC (C. difficile strains; strain NR-49296) was 4 µg/mL (≈ 12.4 µM) and the MIC (C. difficile strains; strain NR-49297) was 2 µg/mL (≈ 6.2 µM). For the same compound, the MIC (C. difficile strains; strain NR-49298) was 4 µg/mL (≈ 12.4 µM), the MIC (C. difficile strains; strain NR-49299) was 2 µg/mL (≈ 6.2 µM) and the MIC (C. difficile strains; strain NR-49300) was 2 µg/mL (≈ 6.2 µM). For the same compound, the MIC (C. difficile strains; strain NR-49301) was 2 µg/mL (≈ 6.2 µM), the MIC (C. difficile strains; strain NR-49303) was 2 µg/mL (≈ 6.2 µM) and the MIC (C. difficile strains; strain NR-49304) was 4 µg/mL (≈ 12.4 µM). The MIC (C. difficile strains; strain NR-49306) was 4 µg/mL (≈ 12.4 µM), the MIC (C. difficile strains; strain NR-49307) was 4 µg/mL (≈ 12.4 µM) and the MIC (C. difficile strains; strain NR-49308) was 2 µg/mL (≈ 6.2 µM). The MIC (C. difficile strains; strain NR-49309) was 2 µg/mL (≈ 6.2 µM), the MIC (C. difficile strains; strain NR-49311) was 2 µg/mL (≈ 6.2 µM) and the MIC (C. difficile strains; strain NR-49312) was 4 µg/mL (≈ 12.4 µM). For the same compound, the MIC (C. difficile strains; strain NR-49313) was 2 µg/mL (≈ 6.2 µM), the MIC (C. difficile strains; strain NR-49314) was 2 µg/mL (≈ 6.2 µM) and the MIC (C. difficile strains; strain NR-49315) was 4 µg/mL (≈ 12.4 µM). The MIC (C. difficile strains; strain NR-49316) was 4 µg/mL (≈ 12.4 µM), the MIC (C. difficile strains; strain NR-49317) was 4 µg/mL (≈ 12.4 µM) and the MIC (C. difficile strains; strain NR-49319) was 4 µg/mL (≈ 12.4 µM). For the same compound, the MIC (C. difficile strains; strain NR-49320) was 2 µg/mL (≈ 6.2 µM), the MIC (C. difficile strains; strain NR-49321) was 4 µg/mL (≈ 12.4 µM) and the MIC (C. difficile strains; strain NR-49323) was 4 µg/mL (≈ 12.4 µM). The MIC (C. difficile strains; strain NR-49324) was 4 µg/mL (≈ 12.4 µM), the MIC (C. difficile strains; strain NR-49325) was 4 µg/mL (≈ 12.4 µM) and the MIC (C. difficile strains; strain NR-49326) was 2 µg/mL (≈ 6.2 µM). The MIC (C. difficile strains; strain NR-49327) was 2 µg/mL (≈ 6.2 µM), the MIC (C. difficile strains; strain NR-49328) was 2 µg/mL (≈ 6.2 µM) and the MIC (C. difficile strains; strain NR-49329) was 2 µg/mL (≈ 6.2 µM). The MIC (C. difficile strains; strain RMA23691) was 4 µg/mL (≈ 12.4 µM), the MIC (C. difficile strains; strain RMA23828) was 4 µg/mL (≈ 12.4 µM) and the MIC (C. difficile strains; strain RMA24531) was 4 µg/mL (≈ 12.4 µM). The MIC (C. difficile strains; strain RMA24923) was 4 µg/mL (≈ 12.4 µM), the MIC (C. difficile strains; strain RMA26675) was 4 µg/mL (≈ 12.4 µM) and the MIC (C. difficile strains; strain RMA27081) was 4 µg/mL (≈ 12.4 µM). For the same compound, the MIC (C. difficile strains; strain RMA27173) was 4 µg/mL (≈ 12.4 µM), the MIC [1] was 2 µg/mL (≈ 6.2 µM) and the MIC (E. aerogenes ATCC35029) was over 128 µg/mL. The MIC (P. aeruginosa ATCC27853) was over 128 µg/mL and the MIC (A. baumanii ATCC17961) was over 128 µg/mL.
